Experimental data as given in the supplement of paper PMC8882468.
Where “and” joins values, the source holds several entries; their conditions need not be identical. Equal entries are not always repeated.

Key:
Test in all cases: CTG-3D luminescence at 96 h relative to day-0 seeding control (ratio to day 0); higher = more growth / less cytotoxicity; PDxO 3D drug screen (set 2), 96 h, CTG-3D normalised to day-0 seeding control.
HCI-001 = test system: HCI-001 (organoid from a triple-negative breast cancer xenograft)
HCI-015 = test system: HCI-015 (organoid from a triple-negative breast cancer xenograft)
HCI-012 = test system: HCI-012 (organoid from a breast cancer xenograft)
HCI-010 = test system: HCI-010 (organoid from a breast cancer xenograft)
HCI-003.E2 = test system: HCI-003.E2 (organoid from an ER-positive breast cancer xenograft)
HCI-005.E2 = test system: HCI-005.E2 (organoid from a breast cancer xenograft with a HER2-positive history)
MDA-MB-231 = test system: MDA-MB-231

O=C(c1cc(Cc2n[nH]c(=O)c3ccccc23)ccc1F)N1CCN(C(=O)C2CC2)CC1 [olaparib]
CTG-3D luminescence at 96 h
Settings | 12.5 pM | 0.00025 µM | 0.005 µM | 0.1 µM | 1 µM | 10 µM | 100 µM | 625 fM
HCI-001, days in culture: 365 | 2.29 | 1.96 | 2.13 | 2.28 | 2.05 | 2.04 | 1.96 | 1.74
HCI-001, days in culture: 397 | 1.71 | 2.02 | 2 | 1.8 | 2.31 | 2.16 | 1.24 | 1.26
HCI-001, days in culture: 401 | 1.69 | 1.42 | 1.54 | 1.68 | 1.23 | 1.73 | 1.26 | 1.62
HCI-010, days in culture: 79 | 2.04 | 1.79 | 2.08 | 2.11 | 1.98 | 1.43 | 0.445 | 2.19
HCI-010, days in culture: 86 | 2.3 | 2.5 | 2.59 | 2.35 | 2.34 | 1.68 | 0.309 | 2.43
HCI-010, days in culture: 102 | 1.21 | 1.27 | 1.15 | 1.36 | 1.26 | 0.657 | 0.0517 | 1.12
HCI-010, days in culture: 164 | 1.72 | 1.56 | 1.64 | 1.57 | 1.54 | 0.88 | 0.272 | 1.61
HCI-012, days in culture: 214 | 2.61 | 3.14 | 2.09 | 1.89 | 1.68 | 0.943 | 0.704 | 2.64
HCI-012, days in culture: 243 | 1.73 | 2.04 | 1.86 | 2.25 | 1.49 | 1.74 | 1.2 | 2.06
HCI-012, days in culture: 256 | 2.25 | 1.86 | 2.13 | 3.12 | 2.12 | 1.26 | 1.08 | 2.1
HCI-012, days in culture: 284 | 1.75 | 1.95 | 1.42 | 2.17 | 1.42 | 1.42 | 0.15 | 3
HCI-015, days in culture: 333 | 1.88 | 1.11 | 1.59 | 1.95 | 0.972 | 0.511 | 0.241 | 1.03
HCI-015, days in culture: 355 | 2.43 | 3.28 | 1.71 | 1.6 | 0.993 | 0.516 | 0.951 | 2.1
HCI-015, days in culture: 369 | 2.43 | 1.41 | 2.36 | 1.91 | 1.9 | 1.05 | 1.24 | 2.02

CTG-3D luminescence at 96 h
Settings | 12.5 pM | 0.00025 µM | 0.005 µM | 0.1 µM | 1 µM | 10 µM | 100 µM | 625 fM
HCI-003.E2 | 2.72 | 2.74 | 2.72 | 2.75 | 2.24 | 1.27 | 0.0215 | 2.79
HCI-005.E2 | 1.62 | 2.3 | 2.07 | 2.39 | 2.1 | 1.27 | 0.485 | 2.24
MDA-MB-231 | 5.57 and 5.09 | 5.62 and 5.21 | 5.57 and 5.41 | 5.38 and 5.09 | 5.15 and 5.11 | 4.31 and 4.38 | 3.27 and 2.33 | 5.41 and 5.09

CO[C@H]1C[C@@H]2CC[C@@H](C)[C@@](O)(O2)C(=O)C(=O)N2CCCC[C@H]2C(=O)O[C@H]([C@H](C)C[C@@H]2CC[C@@H](OCCO)[C@H](OC)C2)CC(=O)[C@H](C)/C=C(\C)[C@@H](O)[C@@H](OC)C(=O)[C@H](C)C[C@H](C)/C=C/C=C/C=C/1C [everolimus]
CTG-3D luminescence at 96 h
Settings | 12.5 pM | 0.00025 µM | 0.005 µM | 0.1 µM | 1 µM | 10 µM | 100 µM | 625 fM
HCI-001, days in culture: 365 | 1.99 | 1.3 | 1.52 | 1.53 | 1.65 | 1.34 | 0.0033 | 1.24
HCI-001, days in culture: 397 | 1.23 | 1.76 | 1.92 | 1.59 | 1.16 | 1.33 | -0.000266 | 0.913
HCI-001, days in culture: 401 | 1.21 | 1.26 | 1.27 | 1.07 | 1.1 | 1.27 | -0.00223 | 1.41
HCI-010, days in culture: 79 | 1.18 | 1.21 | 1.18 | 1.28 | 1.13 | 1.12 | -0.00276 | 1.31
HCI-010, days in culture: 86 | 1.76 | 1.9 | 1.53 | 1.19 | 0.809 | 0.648 | -0.000872 | 2.35
HCI-010, days in culture: 102 | 1.16 | 0.848 | 0.691 | 0.497 | 0.337 | 0.158 | -0.000165 | 1.13
HCI-010, days in culture: 164 | 1.53 | 1.42 | 1.25 | 0.906 | 0.778 | 0.581 | 0.000191 | 1.52
HCI-012, days in culture: 214 | 2.76 | 1.49 | 1.21 | 1.84 | 1.41 | 1.69 | -0.000454 | 2.25
HCI-012, days in culture: 243 | 1.34 | 2.16 | 1.46 | 1.87 | 1.38 | 2.11 | -0.000228 | 1.9
HCI-012, days in culture: 256 | 2.03 | 1.8 | 1.71 | 2.19 | 1.42 | 1.38 | -0.00358 | 1.92
HCI-012, days in culture: 284 | 1.39 | 1.69 | 1.18 | 1.72 | 0.508 | 0.327 | -0.00211 | 2.6
HCI-015, days in culture: 333 | 1.5 | 1.05 | 0.891 | 0.744 | 0.932 | 0.782 | 0.00101 | 1.51
HCI-015, days in culture: 355 | 2.02 | 1.85 | 1.47 | 1.79 | 0.526 | 0.358 | -0.00285 | 1.7
HCI-015, days in culture: 369 | 1.97 | 1.19 | 1.91 | 1.52 | 1.84 | 1.12 | -0.00186 | 1.61

CTG-3D luminescence at 96 h
Settings | 12.5 pM | 0.00025 µM | 0.005 µM | 0.1 µM | 1 µM | 10 µM | 100 µM | 625 fM
HCI-003.E2 | 1.22 | 1.04 | 0.796 | 0.297 | 0.0538 | 0.03 | 0.000105 | 1.67
HCI-005.E2 | 1.05 | 1.43 | 1.45 | 1.18 | 0.769 | 0.653 | -0.000603 | 1.6
MDA-MB-231 | 5.2 and 4.8 | 5.04 and 4.75 | 4.83 and 4.91 | 4.27 and 4.36 | 3.79 and 3.62 | 3.5 and 2.66 | -0.00539 and -0.00564 | 5.28 and 4.71
